From article PMC6753678, “Fueling Open Innovation for Malaria Transmission-Blocking Drugs: Hundreds of Molecules Targeting Early Parasite Mosquito Stages” (Frontiers in Microbiology, 2019)
Read-outs that look alike come from different tables or passages of the source.

Key:
[1] = system: P. berghei ookinete development; conditions: for % inhibition, Replicate A / % inhibition, Replicate B: primary screen at 1 μM
[2] = system: 3D7-strain P. falciparum asexual parasites; test: P. falciparum asexual growth inhibition assay (Pf GIA); type: cell-based, Plasmodium falciparum; conditions: dose response confirmation; read-out: Pf asexual growth inhibition assays IC50
Method in brief: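 LDH readout: absorbance at 650 nm after 10 min at room temperature with lactate/APAD/NBT/diaphorase mix on thawed plates. Cultures (0.25% parasitemia, 2% hematocrit) were treated 72 h at 37°C in low-oxygen gas. Inhibition was normalised to 50 μM chloroquine and DMSO; n=3 biological replicates.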

[3] = system: HepG2 cells; test: HepG2 cytotoxicity assay; conditions: for IC50: read-out: HepG2 cytotoxicity assay IC50, dose response confirmation; for Pb ODA (this manuscript) HepG2 cytoxicity: HepG2 cytotoxicity listed with the Pb ODA data set (this manuscript)
Method in brief: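 Here viability after a 48 h compound incubation (37°C, humidified 5% CO2) is measured by fluorescence and expressed as percent inhibition, with doxorubicin at 50 μM and DMSO as the bounding controls.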

[4] = read-out: Pb ODA IC50, this manuscript
[5] = read-out: Pb Ookinete development assay IC50, dose response confirmation
[6] = HepG2 values of the three screens unified
[7] = read-out: Pb ODA (this manuscript) IC50, P. berghei ookinete development assay, this manuscript
[8] = unified HepG2 value across the three screens

| SMILES | Is compound selective in assay? Pb ODA active? ([1]; 1: YES, 0: NO) | % inhibition, Replicate A [1] [%] | % inhibition, Replicate B [1] [%] | IC50 [1, 4] [nM] | IC50 [1, 5] [nM] | IC50 [2] [nM] | HepG2 cytoxicity (Pb ODA, this manuscript) [3] [µM] | Unified cytotox [3, 6] [µM] | IC50 [3] [nM] | Is compound selective in assay? Pb ODA active? [1] | IC50 [1, 7] [nM] | Pb ODA (this manuscript) HepG2 cytoxicity [3] [µM] | Unified cytotox [3, 8] [µM] |
| --- | --- | --- | --- | --- | --- | --- | --- | --- | --- | --- | --- | --- | --- |
| CCCC(C)n1ccc2c3c(N)nc(N)nc3ccc21 (stereo not shown) [TCMDC-137964] | 0 (0: NO) | 50.53 | 51.77 | 4290 | 4290 | 35 | 0.03 | 0.03 | 30 |  |  |  |  |
| CC(C)Cn1ncc2c3c(N)nc(N)nc3ccc21 [TCMDC-137970] |  | 76.14 | 41.76 |  | 1750 | 80 |  |  | 110 | 0 (key: 1: YES; 0: NO) | 1750 | 0.11 |  |
| CN(C)S(=O)(=O)n1ccc2c3c(N)nc(N)nc3ccc21 [TCMDC-137973] |  | 72.90 | 52.14 |  | 1270 | 6 |  |  | 1.7 | 0 (key: 1: YES; 0: NO) | 1270 | 0.0017 |  |
| Nc1nc(N)c2c(ccc3c2ccn3Cc2ccccn2)n1 [TCMDC-137980] | 0 (0: NO) | 50.19 | 73.34 |  | 2430 | 1.15 | 0.00767 | 0.00767 | 7.67 |  |  |  |  |
| C=CCn1ccc2c3c(N)nc(N)nc3ccc21 [TCMDC-137995] | 0 (0: NO) | 75.02 | 69.00 | 2480 | 2480 | 24 | 1.00 | 1.00 | 1000 |  |  |  |  |
| Nc1nc(N)c2c(ccc3c2ccn3Cc2cccc3ccccc23)n1 [TCMDC-137996] | 0 (0: NO) | 55.22 | 70.48 | 5760 | 5760 | 151 | 0.0017 | 0.0017 | 1.7 |  |  |  |  |
| CC(C)Cn1ccc2c3c(N)nc(N)nc3ccc21 [TCMDC-137997] | 0 (0: NO) | 52.84 | 64.75 | 1400 | 1400 | 19 | 0.25 | 0.25 | 250 |  |  |  |  |
| CCCCCCc1c(C)nc2cc(OC)ccc2c1O [TCMDC-138010] |  | 110.05 | 119.15 |  | 81 | 163 |  |  | 100000 | 1 (key: 1: YES; 0: NO) | 80 | 100.00 |  |
| CCCCCCCc1c(C)nc2cccc(OC)c2c1O [TCMDC-138014] |  | 63.12 | 36.77 |  | 1140 | 1990 |  |  | 5500 | 0 (key: 1: YES; 0: NO) | 1150 | 5.50 |  |
| CCCCCCCc1c(C)nc2c(OC)cccc2c1O [TCMDC-138016] |  | 91.04 | 66.93 |  | 529 | 195 |  |  | 100000 | 1 (key: 1: YES; 0: NO) | 530 | 100.00 |  |
| CCC(CC)n1cc2c(ccc3nc(N)nc(N)c32)n1 [TCMDC-138019] |  | 5.46 | 62.28 |  | 8220 | 60 |  |  | 1.7 | 0 (key: 1: YES; 0: NO) | 8220 | 0.0017 |  |
| COc1ccc(Cc2c(N)nc3nc(N)nc(N)c3c2C)cc1.Cl [TCMDC-138061] |  | -0.33 | 51.34 |  | 5180 | 142 |  |  | 55 | 0 (key: 1: YES; 0: NO) | 5180 | 0.055 |  |
| COc1ccc(-c2nc3c(N)nc(N)nc3nc2-c2ccccc2Cl)cc1.COc1ccc(-c2nc3nc(N)nc(N)c3nc2-c2ccccc2Cl)cc1.Cl [TCMDC-138100] | 0 (0: NO) | 50.02 | 33.60 | 8260 | 8260 | 1550 |  |  | 73300 |  |  |  | 73.28 |
| CC(O)C(C)(CO)NCc1ccc2c3c(cccc13)-c1ccccc1-2.Cl (stereo not shown) [TCMDC-138117] | 0 (0: NO) | 18.85 | 67.10 | 610 | 608 | 490 |  |  | 4470 |  |  |  | 4.47 |
| COc1ccc2c(=O)c(I)c(C)[nH]c2c1 [TCMDC-138141] |  | 99.28 | 96.77 |  | 140 | < 0.3 |  |  | 1.7 | 0 (key: 1: YES; 0: NO) |  | 0.0017 |  |
| Cc1ccc2c(=O)c3cc(C)ccc3[nH]c2c1 [TCMDC-138194] | 1 (1: YES) | 98.56 | 107.67 | 220 | 217 | 176 |  |  | 63800 |  |  |  | 63.83 |
| COc1ccc(Cn2c(Nc3cccc(C(F)(F)F)c3)nc3cc(C(=O)NC(C)C)cnc32)cc1Cl [TCMDC-138556] | 0 (0: NO) | 25.40 | 50.20 | 5440 | 5440 | 1400 |  |  | 51300 |  |  |  | 51.29 |
| Nc1nc(N)c2c(ccc3c2ccn3CCCC(F)(F)F)n1 [TCMDC-138622] | 0 (0: NO) | 33.98 | 53.93 | 6060 | 6060 | 105 | 0.37 | 0.37 | 370 |  |  |  |  |
| Nc1nc(N)c2c(ccc3c2ccn3CCCF)n1 [TCMDC-138623] | 0 (0: NO) | 92.24 | 33.21 | 1890 | 1890 | 122 | 1.10 | 1.10 | 1100 |  |  |  |  |
| CN1CCN(c2ccc(Nc3nccc(-c4cnn5ncccc45)n3)cc2Cl)CC1 [TCMDC-138688] | 1 (1: YES) | 69.14 | 64.46 | 1800 | 1800 | 929 |  |  | 46800 |  |  |  | 46.77 |
| CC(=O)c1ccc(NC(=O)Nc2ccc(N(C)c3ccnc(Nc4cccc(CS(C)(=O)=O)c4)n3)cc2)cc1 [TCMDC-138736] | 1 (1: YES) | 94.55 | 90.04 | 200 | 202 | 607 |  |  | 2110 |  |  |  | 2.11 |
| Cc1[nH]c(C)c(-c2ccc(Oc3ccc(OC(F)(F)F)cc3)cc2)c(=O)c1Br [TCMDC-138826] |  | 67.69 | 78.09 |  | 7890 | 274 |  |  | 75900 | 0 (key: 1: YES; 0: NO) | 7890 | 75.86 |  |
| Cc1ccc(Nc2nc3cc(N(C)c4ccnc(Nc5cccc(CCS(C)(=O)=O)c5)n4)ccc3n2C)cc1.O=C(O)C(F)(F)F [TCMDC-138853] | 0 (0: NO) | 113.72 | 29.45 | 1880 | 1880 | 0.433 |  |  | 3310 |  |  |  | 3.31 |
| Cc1[nH]c(C)c(-c2ccc(OCc3ccccc3)cc2)c(=O)c1Br [TCMDC-138901] |  | 91.81 | 92.28 |  | 224 | 108 |  |  | 100000 | 1 (key: 1: YES; 0: NO) | 220 | 100.00 |  |
| OCCc1ccc(Nc2nccc(-c3nnc4ccccn34)n2)cc1 [TCMDC-138924] | 1 (1: YES) | 70.77 | 81.57 | 400 | 395 | < 0.2 |  |  | 100000 |  |  |  | 100.00 |
